This is an account of results in patent US20220153751A1, “BIFUNCTIONAL COMPOUNDS” (BioTheryX, Inc., priority 2018, published 2022).

Common to all, as to assay type: cell-based
One test deals with T1, IKAROS (Homo sapiens, UniProt Q13422+Q96SW2).
T1 construct: endogenous in cells; host or cells: MV-4-11
Description: IKAROS degradation assay (Western blot, MV-4-11 cells). The settings on record: MV4-11, 6-8 h. On the procedure:
(§1) MV-4-11 cells were grown in RPMI 1640 media supplemented with 10% fetal bovine serum, streptomycin and penicillin.
(§2) Cells were cultured at approximately 10^6 cells per mL and incubated in DMSO or the indicated compound for 6-8 h. Whole cell extracts were prepared using RIPA buffer according to manufacturer's protocol (Pierce). Briefly, 3×10^6 cells were washed once in PBS, the cell pellets were resuspended in RIPA buffer and allowed to incubate for 15 minutes on ice. Cells debris was removed by centrifugation and the cleared whole cell lysates were transferred to new tubes for further analysis.
(§3) For Western blot analysis, whole cell protein extracts were separated on 4-12% SDS-polyacrylamide gels, transferred to nitrocellulose and probed with the indicated primary antibodies. Membranes were subsequently washed and probed with the appropriate IRDye secondary antibodies (LI-COR). The signal was detected using the Odyssey Imaging System (LI-COR).
(§4) The following antibodies were used in these studies: Anti-eRF3/GSPT1: Abcam, ab126090 (Cambridge, Mass.); Anti-Ikaros: Abcam, ab191394 (Cambridge, Mass.); Anti-CK1α: Abcam, ab108296 (Cambridge, Mass.); Anti-CDK9: Santa Cruz Biotechnology, sc13130 (Dallas, Tex.); Anti-CDK16: Millipore Sigma, HPA001366 (St. Louis, Mo.); 3-actin (8H10comD10) mouse monoclonal antibody: Cell Signaling Technology, #3700 (Danvers, Mass.); IRDye 680RD Goat anti-rabbit antibody: LI-COR, 926-68071 (Lincoln, Nebr.); IRDye 800CW Goat anti-mouse antibody: LI-COR, 926-32210 (Lincoln, Nebr.).
(§5) CDK9 activities are shown in Table 4 at two different concentrations. CDK16 activities are shown in Table 5 at two different concentrations. In each of Tables 1-5, the % degradation values are reported as “A”, “B”, “C”, or “D”. “A” represents a % degradation value of less than 25% (value <25%). “B” represents a % degradation value of equal to or more than 25% and less than 50% (25%≤value<50%). “C” represents a % degradation value of equal to or more than 50% and less than 75% (50%≤value<75%). “D” represents a % degradation value of equal to or more than 75% (value ≥75%).
Background: In western blotting, separated proteins are transferred to a membrane and probed.

The test system of the next test is MOLM-13 cells. Kind of test: MOLM-13 cell viability assay (CellTiter-Glo). The conditions noted are these: Homo sapiens, MOLM-13, 72 h, 3 days, read-out: MOLM-13 Cell Viability % DMSO at 1 μM. The method, then: MOLM-13 cells were cultured in RPMI 1640 media supplemented with 10% fetal bovine serum, streptomycin and penicillin, and were plated in walled 96-well plates at 2500 cells/well. Cells were incubated in DMSO (control) or the indicated compound for 3 days at 37° C. and 5% CO2. Following the incubation period, 100 μL of CellTiterGlow (CTG) reagent (CellTiter-Glo® Luminescent Cell Viability Assay, Promega (Madison, Wis.)) was added to each well. Following a 10 minutes incubation with shaking, luminescence was measured using the EnVision Multimode plate reader.
The MOLM-13 cell viability values as % DMSO are reported as “A”, “B”, “C”, or “D”. “A” represents a % viability value of less than 50% (value <50%). “B” represents a % viability value of equal to or more than 50% and less than 70% (50%≤value<70%). “C” represents a % viability value of equal to or more than 70% and less than 90% (70%≤value<90%). “D” represents a % viability value of equal or more than 90% (value ≥90%).

Another test concerns the target T2, CDK9 (Homo sapiens, UniProt P50750).
T2 construct: Whole cell extracts were prepared using RIPA buffer; endogenous in cells; host or cells: MV-4-11
Kind of test: CDK9 degradation assay (Western blot, MV-4-11 cells). The conditions noted are these: 6-8 h; for Dmax at 0.1 µM: MV4-11, 0.1 μM; for Dmax at 1 µM: MV4-11, 1 μM. The method, then:
as §1, §2, §3, §4, §5

The next test deals with T3, GSPT1 (Homo sapiens, UniProt P15170+Q96SW2).
T3 construct: Whole cell extracts were prepared using RIPA buffer; endogenous in cells; host or cells: MV-4-11
Kind of test: GSPT1 degradation assay (Western blot, MV-4-11 cells). The conditions noted are these: MV4-11, 6-8 h. On the procedure: as §1, §2, §3, §4, §5

The target in the next test is T4, CDK16 (Homo sapiens, UniProt Q00536).
T4 construct: Whole cell extracts were prepared using RIPA buffer; endogenous in cells; host or cells: MV-4-11
Kind of test: CDK16 degradation assay (Western blot, MV-4-11 cells). The conditions noted are these: 6-8 h; for Dmax at 0.1 µM: MV4-11, 0.1 μM; for Dmax at 1 µM: MV4-11, 1 μM. On the procedure: as §1, §2, §3, §4, §5

Another test deals with IL-1β. Description: IL-1β inhibition assay, LPS-induced PBMCs / CD14+ monocytes (Meso Scale). The conditions noted are these: 1 h pretreatment, 100 ng/mL LPS 18-24 h. On the procedure: (§6) Either frozen primary blood mononuclear cells (PBMCs) or frozen CD14+ mobilized peripheral blood monocytes were purchased from AllCells (PB003F, Normal Peripheral Blood MNC (Alameda, Calif.)). Cells were quick thawed, washed 1-time with RPMI-1640 (10% FBS/1% Pen-Strep) and plated in 96 well plates at 200,000 cells per well. Cells were pretreated with DMSO only or with the indicated compound for 1 h and then induced with 100 ng/mL lipopolysaccharide (LPS) for 18-24 h. The supernatant was analyzed for IL-1β, IL-6, and TNFα, using Meso Scale assay according to manufacturer's protocol. The negative control wells were treated with DMSO.
(§7) In Table 6, the % inhibition values are reported as “A”, “B”, “C”, or “D”. “A” represents a % inhibition value of less than 50% (value <50%). “B” represents a % inhibition value of equal to or more than 50% and less than 70% (50%≤value<70%). “C” represents a % inhibition value of equal to or more than 70% and less than 90% (70%≤value<90%). “D” represents a % inhibition value of equal or more than 90% (value ≥90%). In Table 7, the fold-change values are reported as “A”, “B”, “C”, or “D”. “A” represents a fold-change value of equal to or less than 0.1 (value ≤0.1). “B” represents a fold-change value of more than 0.1 and equal to or less than 0.5 (0.1<value≤0.5). “C” represents a fold-change value of more than 0.5 and equal to or less than 1 (0.5<value≤1). “D” represents a fold-change value of more than 1 (value >1).

Another test relates to TNF-α. Kind of test: TNF-α inhibition assay, LPS-induced PBMCs / CD14+ monocytes (Meso Scale). The settings on record: 1 h pretreatment, 100 ng/mL LPS 18-24 h. On the procedure: as §6, §7
The next test deals with IL-6. Description: IL-6 inhibition assay, LPS-induced PBMCs / CD14+ monocytes (Meso Scale). The settings on record: 1 h pretreatment, 100 ng/mL LPS 18-24 h. On the procedure: as §6, §7

T4 sequence (Q00536 whole entry): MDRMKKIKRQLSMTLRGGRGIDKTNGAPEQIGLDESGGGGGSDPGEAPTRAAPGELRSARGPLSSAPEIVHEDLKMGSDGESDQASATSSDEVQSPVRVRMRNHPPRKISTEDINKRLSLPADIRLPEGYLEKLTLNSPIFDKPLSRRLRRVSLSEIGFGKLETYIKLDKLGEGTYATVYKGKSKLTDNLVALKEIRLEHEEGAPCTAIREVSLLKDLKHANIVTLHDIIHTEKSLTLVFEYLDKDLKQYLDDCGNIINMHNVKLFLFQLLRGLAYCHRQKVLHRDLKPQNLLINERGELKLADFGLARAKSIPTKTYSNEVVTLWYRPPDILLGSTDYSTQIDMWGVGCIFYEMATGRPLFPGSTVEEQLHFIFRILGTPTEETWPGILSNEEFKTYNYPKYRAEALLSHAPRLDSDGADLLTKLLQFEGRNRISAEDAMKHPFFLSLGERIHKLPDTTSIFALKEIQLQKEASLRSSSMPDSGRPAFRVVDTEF
T2 sequence (P50750 whole entry): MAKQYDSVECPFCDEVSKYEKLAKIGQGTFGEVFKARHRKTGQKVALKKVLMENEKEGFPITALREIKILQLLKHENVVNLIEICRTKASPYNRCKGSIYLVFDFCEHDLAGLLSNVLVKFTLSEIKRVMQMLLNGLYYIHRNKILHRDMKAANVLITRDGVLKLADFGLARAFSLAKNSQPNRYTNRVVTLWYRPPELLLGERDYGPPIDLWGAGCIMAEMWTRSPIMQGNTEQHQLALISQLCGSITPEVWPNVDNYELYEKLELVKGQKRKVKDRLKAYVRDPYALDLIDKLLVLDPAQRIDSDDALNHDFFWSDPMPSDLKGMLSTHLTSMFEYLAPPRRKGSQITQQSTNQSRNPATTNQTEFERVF
T1 sequence (Q13422 whole entry): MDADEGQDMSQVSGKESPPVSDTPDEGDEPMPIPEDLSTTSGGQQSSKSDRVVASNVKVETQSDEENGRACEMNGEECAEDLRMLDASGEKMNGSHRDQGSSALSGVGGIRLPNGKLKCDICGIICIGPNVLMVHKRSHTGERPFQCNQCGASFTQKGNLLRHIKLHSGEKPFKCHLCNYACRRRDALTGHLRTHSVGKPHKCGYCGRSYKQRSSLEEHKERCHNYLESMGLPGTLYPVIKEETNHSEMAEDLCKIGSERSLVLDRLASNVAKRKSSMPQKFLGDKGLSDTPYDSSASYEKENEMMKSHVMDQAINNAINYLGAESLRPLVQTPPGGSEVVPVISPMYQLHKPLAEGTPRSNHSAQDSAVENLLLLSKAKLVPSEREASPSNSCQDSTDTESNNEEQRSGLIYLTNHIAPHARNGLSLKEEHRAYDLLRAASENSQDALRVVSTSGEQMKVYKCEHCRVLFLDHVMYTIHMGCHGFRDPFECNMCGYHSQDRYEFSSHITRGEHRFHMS
T1 sequence (Q96SW2 whole entry): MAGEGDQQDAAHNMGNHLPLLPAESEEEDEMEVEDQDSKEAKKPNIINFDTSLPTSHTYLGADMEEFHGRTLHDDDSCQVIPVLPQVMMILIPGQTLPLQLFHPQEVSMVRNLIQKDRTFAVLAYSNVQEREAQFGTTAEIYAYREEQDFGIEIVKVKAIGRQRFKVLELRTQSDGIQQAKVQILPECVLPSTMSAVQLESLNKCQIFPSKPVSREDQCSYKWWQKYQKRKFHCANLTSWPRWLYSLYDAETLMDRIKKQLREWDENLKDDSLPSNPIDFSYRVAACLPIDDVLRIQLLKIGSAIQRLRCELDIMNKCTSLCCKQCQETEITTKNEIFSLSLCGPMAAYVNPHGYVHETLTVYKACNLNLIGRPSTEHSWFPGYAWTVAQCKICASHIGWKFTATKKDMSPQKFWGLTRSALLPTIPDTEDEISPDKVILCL
T1 sequence (Q16531 whole entry partner): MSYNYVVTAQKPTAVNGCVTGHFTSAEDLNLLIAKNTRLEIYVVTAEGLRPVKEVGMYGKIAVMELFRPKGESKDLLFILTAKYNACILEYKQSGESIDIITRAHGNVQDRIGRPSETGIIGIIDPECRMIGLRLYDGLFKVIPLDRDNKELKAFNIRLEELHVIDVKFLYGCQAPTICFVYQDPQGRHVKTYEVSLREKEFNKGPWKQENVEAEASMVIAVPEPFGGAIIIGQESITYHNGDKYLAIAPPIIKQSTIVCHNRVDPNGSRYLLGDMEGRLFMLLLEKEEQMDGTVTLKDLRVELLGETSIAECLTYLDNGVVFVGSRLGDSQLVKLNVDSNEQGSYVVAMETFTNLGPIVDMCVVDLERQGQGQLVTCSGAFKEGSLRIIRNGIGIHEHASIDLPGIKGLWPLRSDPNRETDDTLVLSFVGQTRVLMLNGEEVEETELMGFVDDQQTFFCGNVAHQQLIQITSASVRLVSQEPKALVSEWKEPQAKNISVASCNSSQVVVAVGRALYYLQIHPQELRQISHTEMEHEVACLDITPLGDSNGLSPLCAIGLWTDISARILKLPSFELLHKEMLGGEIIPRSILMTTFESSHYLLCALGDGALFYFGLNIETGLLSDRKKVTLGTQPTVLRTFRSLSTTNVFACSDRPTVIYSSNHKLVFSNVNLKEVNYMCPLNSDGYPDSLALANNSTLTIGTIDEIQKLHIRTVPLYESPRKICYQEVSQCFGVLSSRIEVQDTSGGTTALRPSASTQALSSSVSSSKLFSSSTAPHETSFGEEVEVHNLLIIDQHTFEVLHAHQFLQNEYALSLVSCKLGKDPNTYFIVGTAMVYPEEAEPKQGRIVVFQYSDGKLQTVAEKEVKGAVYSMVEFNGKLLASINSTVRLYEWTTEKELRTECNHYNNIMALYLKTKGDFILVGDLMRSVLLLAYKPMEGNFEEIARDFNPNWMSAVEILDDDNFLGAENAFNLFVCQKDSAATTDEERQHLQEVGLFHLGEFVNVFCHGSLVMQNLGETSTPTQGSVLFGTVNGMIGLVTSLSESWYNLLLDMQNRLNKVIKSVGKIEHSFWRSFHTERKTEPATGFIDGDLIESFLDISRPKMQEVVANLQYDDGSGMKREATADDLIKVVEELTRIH
T3 sequence (P15170 whole entry): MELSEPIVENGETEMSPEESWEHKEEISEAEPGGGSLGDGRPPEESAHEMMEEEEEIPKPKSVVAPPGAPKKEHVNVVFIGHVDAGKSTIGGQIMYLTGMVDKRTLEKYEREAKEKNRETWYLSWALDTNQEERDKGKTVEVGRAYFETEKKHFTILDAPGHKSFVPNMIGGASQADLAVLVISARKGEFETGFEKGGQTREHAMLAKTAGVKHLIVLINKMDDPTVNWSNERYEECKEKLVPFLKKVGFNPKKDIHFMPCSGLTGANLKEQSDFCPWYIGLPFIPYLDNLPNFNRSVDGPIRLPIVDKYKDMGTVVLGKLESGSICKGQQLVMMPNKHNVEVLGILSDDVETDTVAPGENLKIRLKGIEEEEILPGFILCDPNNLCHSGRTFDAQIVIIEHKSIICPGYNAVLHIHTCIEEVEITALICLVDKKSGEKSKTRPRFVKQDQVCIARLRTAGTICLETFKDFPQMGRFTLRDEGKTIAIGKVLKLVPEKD
T3 sequence (Q96SW2 whole entry): as the sequence (Q96SW2 whole entry) above
T3 sequence (Q16531 whole entry partner): as the sequence (Q16531 whole entry partner) above

A word on the Dmax: it is the largest share of the target that was removed. One may read the viability as the share of living cells, or the viability signal relative to a control. Consider `CC(C)(C)c1cnc(CSc2cnc(NC(=O)C3CCN(CC(=O)NCCCCNCC(=O)NCc4cc5c(s4)C(=O)N(C4CCC(=O)NC4=O)C5)CC3)s2)o1` (centres unmarked) [Compound 14, N-(5-(((5-(tert-butyl)oxazol-2-yl)methyl)thio)thiazol-2-yl)-1-(2-((4-((2-(((5-(2,6-dioxopiperidin-3-yl)-6-oxo-5,6-dihydro-4H-thieno[2,3-c]pyrrol-2-yl)methyl)amino)-2-oxoethyl)amino)butyl)amino)-2-oxoethyl)piperidine-4-carboxamide], for which the Dmax at 1 µM at IKAROS was below 25%; at CDK9 it was at least 75%; at GSPT1, 25 to 50%; at CDK16, 25 to 50%. Besides, the viability at 1 µM in the test with MOLM-13 cells is above 90%. Besides, the Dmax at 0.1 µM on CDK9 is 25 to 50%; on CDK16, below 25%.
In the case of `Cn1ncc(-c2nc(N[C@H]3CC[C@H](NCC(=O)NCCOCCOCCOCCNc4cccc5c4C(=O)N(C4CCC(=O)NC4=O)C5=O)CC3)ncc2Cl)c1CC1CC1` (some centres unmarked) [Compound 49, 2-(((1r,4r)-4-((5-chloro-4-(5-(cyclopropylmethyl)-1-methyl-1H-pyrazol-4-yl)pyrimidin-2-yl)amino)cyclohexyl)amino)-N-(2-(2-(2-(2-((2-(2,6-dioxopiperidin-3-yl)-1,3-dioxoisoindolin-4-yl)amino)ethoxy)ethoxy)ethoxy)ethyl)acetamide], the Dmax at 1 µM at IKAROS is 50 to 75%; at GSPT1, below 25%. Further, in the test with MOLM-13 cells, the viability at 1 µM is above 90%.
Broadly, the inhibition is the drop in the measured response relative to a control, in per cent. Turning to `CN(CCNCC(=O)NCc1scc2c1CN(C1CCC(=O)NC1=O)C2=O)CCNC(=O)CN1CCC(C(=O)Nc2ncc(SCc3ncc(C(C)(C)C)o3)s2)CC1` (centres unmarked) [Compound 44, N-(5-(((5-(tert-butyl)oxazol-2-yl)methyl)thio)thiazol-2-yl)-1-(1-(5-(2,6-dioxopiperidin-3-yl)-4-oxo-5,6-dihydro-4H-thieno[3,4-c]pyrrol-1-yl)-8-methyl-3,12-dioxo-2,5,8,11-tetraazatridecan-13-yl)piperidine-4-carboxamide], the inhibition at 1 µM in the test on IL-1β is 50 to 70%; in the test on TNF-α it was 50 to 70%; with IL-6 it was below 50%. Besides, the viability at 1 µM with MOLM-13 cells fell in the range of 50 to 70%.
Consider `Cn1ncc(-c2nc(N[C@H]3CC[C@H](NC(=O)CCCCCCNC(=O)NCc4cc5c(s4)C(=O)N(C4CCC(=O)NC4=O)C5)CC3)ncc2Cl)c1CC1CC1` (some centres unmarked) [Compound 5, N-((1r,4r)-4-((5-chloro-4-(5-(cyclopropylmethyl)-1-methyl-1H-pyrazol-4-yl)pyrimidin-2-yl)amino)cyclohexyl)-7-(3-((5-(2,6-dioxopiperidin-3-yl)-6-oxo-5,6-dihydro-4H-thieno[2,3-c]pyrrol-2-yl)methyl)ureido)heptanamide], for which the inhibition at 1 µM with IL-1β was above 90%; with TNF-α it was 70 to 90%; in the test with IL-6, above 90%. Besides, in the test on MOLM-13 cells, the viability at 1 µM was above 90%.
`Cn1ncc(-c2nc(NC3CCC(NC(=O)CCCCCCNC(=O)NCc4scc5c4CN(C4CCC(=O)NC4=O)C5=O)CC3)ncc2Cl)c1CC1CC1` (centres unmarked) [Compound 4, 3-[2-({3-[7-(4-{5-Chloro-4-[5-(cyclopropylmethyl)-1-methyl-1H-pyrazol-4-yl]-2-pyrimidinylamino}cyclohexylamino)-7-oxoheptyl]ureido}methyl)-6-oxo-3-thia-7-azabicyclo[3.3.0]octa-1,4-dien-7-yl]-2,6-piperidinedione]: the viability at 1 µM with MOLM-13 cells was above 90%. This molecule registered a Dmax at 1 µM on GSPT1 of 25 to 50%.
As to `Cn1ncc(-c2nc(N[C@H]3CC[C@H](NCCCCCCCNCc4ccc(OCc5scc6c5CN([C@H]5CCC(=O)NC5=O)C6=O)cc4)CC3)ncc2Cl)c1CC1CC1` [Compound 68, (S)-3-(1-((4-(((7-(((1r,4r)-4-((5-chloro-4-(5-(cyclopropylmethyl)-1-methyl-1H-pyrazol-4-yl)pyrimidin-2-yl)amino)cyclohexyl)amino)heptyl)amino)methyl)phenoxy)methyl)-4-oxo-4H-thieno[3,4-c]pyrrol-5(6H)-yl)piperidine-2,6-dione], the Dmax at 1 µM on IKAROS and on GSPT1 was at least 75% each time. Moreover, the viability at 1 µM in the test with MOLM-13 cells was above 90%.
On to `CC(C)(C)c1cnc(CSc2cnc(NC(=O)C3CCN(CCOCCOCCNC(=O)NCc4cc5c(s4)C(=O)N(C4CCC(=O)NC4=O)C5)CC3)s2)o1` (centres unmarked) [Compound 19, N-(5-(((5-(tert-butyl)oxazol-2-yl)methyl)thio)thiazol-2-yl)-1-(1-(5-(2,6-dioxopiperidin-3-yl)-6-oxo-5,6-dihydro-4H-thieno[2,3-c]pyrrol-2-yl)-3-oxo-7,10-dioxa-2,4-diazadodecan-12-yl)piperidine-4-carboxamide], for which the inhibition at 1 µM in the test with IL-1β is above 90%; in the test on TNF-α it was 70 to 90%; with IL-6, above 90%. In the test on MOLM-13 cells, the viability at 1 µM was in the range of 70 to 90%.
Take `Cn1ncc(-c2nc(N[C@H]3CC[C@H](NCC(=O)NCCCCNCC(=O)NCc4cc5c(s4)C(=O)N(C4CCC(=O)NC4=O)C5=O)CC3)ncc2Cl)c1CC1CC1` (some centres unmarked) [Compound 36, 2-(((1r,4r)-4-((5-chloro-4-(5-(cyclopropylmethyl)-1-methyl-1H-pyrazol-4-yl)pyrimidin-2-yl)amino)cyclohexyl)amino)-N-(4-((2-(((5-(2,6-dioxopiperidin-3-yl)-4,6-dioxo-5,6-dihydro-4H-thieno[2,3-c]pyrrol-2-yl)methyl)amino)-2-oxoethyl)amino)butyl)acetamide]: the inhibition at 1 µM in the test with IL-1β, in the test with TNF-α and in the test on IL-6 was 70 to 90% in each case. Also, the viability at 1 µM in the test on MOLM-13 cells was 50 to 70%. Further, the Dmax at 0.1 µM at CDK9 and at CDK16 was below 25% in each case. Also, the Dmax at 1 µM on CDK9 and on CDK16 was 25 to 50% throughout.
